Here are results for 12 compounds from ChEMBL document CHEMBL1201862, “PubChem BioAssay data set” (2004).

Molecules are shown by their SMILES.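 Exposure lasted 48 hours, with cells grown in 96-well plates and compounds tested at five concentrations. The concentration for 50% growth inhibition is given as GI50.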 The source made the active and inactive calls. No stated cut-off is given here; in the data, active = GI50 up to about 1.1 µM and inactive = higher. Some results are limits rather than exact numbers.

Test systems include SF-539; SNB-78; CCRF-CEM; NCI-H460; KM-20L2; DLD-1; DMS-114; OVCAR-5; HL-60; TK-10; M19-MEL; UACC-62; 786-0; K562; KM12; NCI-H522; LOX IMVI; NCI-H226.
Experiment in all cases: NCI-60 cell line screen, 48 h

`COc1cccc(C2N3CCCCC3[C@@H]3c4[nH]c5ccccc5c4CCN23)c1OC` (stereo partly specified): the GI50 with SF-539 was 15 µM (inactive); in the experiment with SNB-78, 15.7 µM (inactive); with CCRF-CEM, 17.3 µM (inactive); in the experiment with NCI-H460 it was 19.2 µM (inactive); with KM-20L2, 14.3 µM (inactive); in the experiment on DLD-1 it was 16.9 µM (inactive). The GI50 was 15.5 µM (inactive) in the experiment on DMS-114; 15.9 µM (inactive) in the experiment with OVCAR-5; 15.1 µM (inactive) with HL-60; 19.3 µM (inactive) in the experiment on TK-10; 15.9 µM (inactive) in the experiment on M19-MEL; 11.6 µM (inactive) in the experiment with UACC-62. The values for the GI50 in the experiment with 786-0 and in the experiment on K562 were 18.3 µM (inactive) and 14.7 µM (inactive), respectively.

`CCOC(=O)NC1C2CC(=O)OC(O2)C1OC(C)=O` (stereo unspecified): the GI50 with SF-539, in the experiment on KM12, with SNB-78, in the experiment with CCRF-CEM, in the experiment on NCI-H460 and in the experiment on KM-20L2 was > 100 µM (inactive) each time. Moreover, the GI50 is 90.6 µM (inactive) with DLD-1; > 100 µM (inactive) with NCI-H522; > 100 µM (inactive) in the experiment with OVCAR-5; > 100 µM (inactive) with TK-10; > 100 µM (inactive) with LOX IMVI; 0.424 µM (active) in the experiment with NCI-H226. In addition, the GI50 in the experiment with M19-MEL, in the experiment on UACC-62, in the experiment on 786-0 and with K562 was > 100 µM (inactive) in each case.

Regarding `C[C@@H](NC1CCCC[C@H]1O)c1ccccc1` (stereo partly specified), the GI50 with SF-539, in the experiment with KM12, in the experiment on SNB-78, in the experiment on CCRF-CEM, in the experiment on NCI-H460 and in the experiment with KM-20L2 was > 100 µM (inactive) each time. Also, the GI50 in the experiment on DLD-1, in the experiment on NCI-H522, with HL-60, in the experiment on TK-10, in the experiment with LOX IMVI and with NCI-H226 was > 100 µM (inactive) in each case. The GI50 with M19-MEL, in the experiment with UACC-62, in the experiment with 786-0 and in the experiment with K562 was > 100 µM (inactive) throughout.

`Cc1cc2c(C=O)n[nH]c2c(C#N)c1C`: the GI50 with SF-539 was 27.7 µM (inactive); in the experiment with KM12, 34.7 µM (inactive); in the experiment with SNB-78, 95.3 µM (inactive); with CCRF-CEM, > 100 µM (inactive); in the experiment with NCI-H460, 46.6 µM (inactive); in the experiment with KM-20L2, 65.9 µM (inactive). In addition, the GI50 is > 100 µM (inactive) with DLD-1; 10.4 µM (inactive) with NCI-H522; 26.5 µM (inactive) in the experiment with DMS-114; > 100 µM (inactive) with OVCAR-5; > 100 µM (inactive) with TK-10; 39.4 µM (inactive) with LOX IMVI. Moreover, the GI50 in the experiment with M19-MEL is 60.8 µM (inactive); in the experiment with UACC-62, 43.3 µM (inactive); in the experiment with 786-0, > 100 µM (inactive); in the experiment on K562 it was > 100 µM (inactive).

For the compound `CC1=C(C(=O)Nc2ccccc2C)C(c2ccccc2O)C(C(=O)Nc2ccccc2C)=C(C)N1`, the GI50 in the experiment with SF-539 is 17.3 µM (inactive); in the experiment on KM12, 14.7 µM (inactive); in the experiment with SNB-78 it was 29.5 µM (inactive); in the experiment with CCRF-CEM, 24.6 µM (inactive); with NCI-H460, 17.1 µM (inactive); in the experiment on KM-20L2, 20.2 µM (inactive). Further, the GI50 with DLD-1 was 16.8 µM (inactive); in the experiment on DMS-114, 22 µM (inactive); in the experiment on OVCAR-5 it was 30.8 µM (inactive); in the experiment with HL-60 it was 21 µM (inactive); in the experiment with TK-10, 29.2 µM (inactive); with LOX IMVI, 18.6 µM (inactive). Moreover, the GI50 is 23.8 µM (inactive) with NCI-H226; 21 µM (inactive) in the experiment with M19-MEL; 15.8 µM (inactive) in the experiment on UACC-62; 15.3 µM (inactive) in the experiment with 786-0; 25.2 µM (inactive) with K562.

Turning to `C/C=C/C1(NS(=O)(=O)c2ccc(C)cc2)CCC(C(C)(C)C)CC1` (stereo unspecified), the GI50 was 21.4 µM (inactive) with SF-539; 20.8 µM (inactive) in the experiment with KM12; 25.6 µM (inactive) in the experiment with SNB-78; 19.5 µM (inactive) in the experiment on CCRF-CEM; 21.7 µM (inactive) with NCI-H460; 20.1 µM (inactive) with KM-20L2. Besides, the GI50 is 35.8 µM (inactive) with DLD-1; 11.6 µM (inactive) in the experiment with NCI-H522; 27 µM (inactive) with DMS-114; 20.7 µM (inactive) with OVCAR-5; 23.4 µM (inactive) in the experiment with HL-60; 35.8 µM (inactive) in the experiment on TK-10. For the same compound, the GI50 in the experiment with NCI-H226 is 20.6 µM (inactive); in the experiment on M19-MEL it was 19.7 µM (inactive); in the experiment with UACC-62, 19 µM (inactive); in the experiment on 786-0 it was 19 µM (inactive); with K562 it was 35.5 µM (inactive).

Consider `N#CCCN(c1ccc(/C=N/c2ccccc2Cl)cc1)S(=O)(=O)c1ccccc1`, for which the GI50 in the experiment on SF-539, in the experiment with KM12, in the experiment on SNB-78, in the experiment with NCI-H460, with KM-20L2 and in the experiment with DLD-1 was > 100 µM (inactive) in each case. In addition, the GI50 with NCI-H522, in the experiment with DMS-114, in the experiment on OVCAR-5, in the experiment with HL-60, with TK-10 and in the experiment with LOX IMVI was > 100 µM (inactive) throughout. Further, the GI50 in the experiment with NCI-H226, in the experiment with M19-MEL, in the experiment with UACC-62, in the experiment on 786-0 and with K562 was > 100 µM (inactive) each time.

As for `CCOC(=O)COc1cccc2c1C(=O)CCO2`, the GI50 with SF-539, in the experiment on KM12, in the experiment on SNB-78, in the experiment with CCRF-CEM, in the experiment with NCI-H460 and with KM-20L2 was > 100 µM (inactive) throughout. Further, the GI50 with DLD-1, in the experiment with NCI-H522, in the experiment with DMS-114, with OVCAR-5, in the experiment on HL-60 and in the experiment on TK-10 was > 100 µM (inactive) each time. The GI50 in the experiment on LOX IMVI, in the experiment with M19-MEL, in the experiment on UACC-62, in the experiment on 786-0 and in the experiment on K562 was > 100 µM (inactive) each time.

With `CC/C(=N/O)c1ccc2[nH]c3c(C)cc([N+](=O)[O-])c(C)c3c2c1`, the GI50 in the experiment with SF-539 is 51.5 µM (inactive); in the experiment with KM12 it was 37.4 µM (inactive); in the experiment on SNB-78 it was > 100 µM (inactive); in the experiment on CCRF-CEM it was 15.1 µM (inactive); with NCI-H460, 39.2 µM (inactive); with DLD-1, 16.2 µM (inactive). The GI50 in the experiment on NCI-H522 is 22.9 µM (inactive); in the experiment with DMS-114 it was > 100 µM (inactive); in the experiment on OVCAR-5, > 100 µM (inactive); in the experiment on HL-60 it was 12.7 µM (inactive); in the experiment on TK-10, 15.2 µM (inactive); with LOX IMVI, 54.1 µM (inactive). Also, the GI50 with NCI-H226 was > 100 µM (inactive); with M19-MEL it was 50.2 µM (inactive); in the experiment with 786-0, 36 µM (inactive); in the experiment on K562, 20.1 µM (inactive).

Consider `O=C(O)/C(=C\c1ccccc1Cl)S(=O)(=O)c1ccccc1`, for which the GI50 with SF-539 was > 100 µM (inactive); in the experiment on KM12, > 100 µM (inactive); in the experiment on SNB-78 it was > 100 µM (inactive); with CCRF-CEM it was 14.5 µM (inactive); in the experiment on NCI-H460, > 100 µM (inactive); in the experiment on KM-20L2 it was > 100 µM (inactive). Further, the GI50 in the experiment with DLD-1, in the experiment on NCI-H522, in the experiment with DMS-114, in the experiment with OVCAR-5, in the experiment with HL-60 and in the experiment with TK-10 was > 100 µM (inactive) throughout. In addition, the GI50 in the experiment on LOX IMVI, in the experiment on M19-MEL, in the experiment on UACC-62, in the experiment on 786-0 and with K562 was > 100 µM (inactive) throughout.

As for `CC(C)(C)OC(=O)N[C@H]1CC2(C=C(Cl)C(=O)C(Cl)=C2)OC1=O`, the GI50 is 21.1 µM (inactive) in the experiment with SF-539; 17.7 µM (inactive) with KM12; 19.6 µM (inactive) in the experiment with SNB-78; 1.38 µM (inactive) in the experiment on CCRF-CEM; 24.3 µM (inactive) in the experiment on NCI-H460; 20.4 µM (inactive) with KM-20L2. Further, the GI50 with DLD-1 was 3.66 µM (inactive); in the experiment with NCI-H522 it was 3.07 µM (inactive); in the experiment with OVCAR-5, 19.5 µM (inactive); in the experiment with HL-60 it was 2.13 µM (inactive); in the experiment with TK-10 it was 17.5 µM (inactive); in the experiment on LOX IMVI it was 13.2 µM (inactive). The GI50 in the experiment on NCI-H226 was > 59.7 µM (inactive); in the experiment with M19-MEL, 17.1 µM (inactive); with UACC-62 it was 16.5 µM (inactive); in the experiment on 786-0 it was 14.9 µM (inactive); with K562, 2.46 µM (inactive).

Take `Nc1nc2sc3ccccc3c(=O)n2n1`: the GI50 in the experiment with SF-539, in the experiment on KM12, in the experiment with SNB-78, with CCRF-CEM, with NCI-H460 and in the experiment on KM-20L2 was > 100 µM (inactive) each time. In addition, the GI50 in the experiment on DLD-1, in the experiment with DMS-114, in the experiment on OVCAR-5, in the experiment with HL-60, in the experiment on TK-10 and in the experiment on LOX IMVI was > 100 µM (inactive) each time. Also, the GI50 in the experiment on NCI-H226, in the experiment on UACC-62, in the experiment on 786-0 and in the experiment with K562 was > 100 µM (inactive) each time.
